IC50 data for 14 compounds are collected here from ChEMBL document CHEMBL5149978, “Structural insights of oxindole based kinase inhibitors as anticancer agents: Recent advances” (Eur J Med Chem, 2021).

Test [1] has as its system HCT-116. The test can be described thus: Antiproliferative against human HCT-116 cells assessed as reduction in cell proliferation incubated for 72 hrs by MTT assay. Type of test: functional, cell-based. The following applies: HCT-116, 72 h. In general terms: Formazan colour is commonly taken as a measure of viable cells.
Test [2] concerns the target Serine/threonine-protein kinase pim-1 (Homo sapiens, UniProt P11309). The test can be described thus: Inhibition of PIM1 (unknown origin).
The subject of test [3] is HeLa. Kind of test: Anti-proliferative against human HeLa cells incubated for 48 hrs by MTT assay. Type of test: functional, cell-based.
Test [4] has as its system A549. Kind of test: Anti-proliferative against human A549 cells incubated for 48 hrs by MTT assay. It is filed as functional, cell-based. The following applies: A549, 48 h.
For another test, the system named is SW-620. The test can be described thus: Anti-proliferative against human SW620 cells incubated for 48 hrs by MTT assay. Type of test: functional, cell-based. The following applies: SW-620, 48 h.
The test system of test [5] is MDA-MB-231. The test can be described thus: Anti-proliferative activity against human MDA-MB-231 cells measured after 48 hrs by MTT assay. Type of test: functional, cell-based. The following applies: MDA-MB-231, 48 h.
Test [6] deals with MDA-MB-231. Kind of test: Anti-proliferative against human MDA-MB-231 cells by SRB colorimetric assay. Type of test: functional, cell-based. A general note: The SRB assay estimates cell density from bound dye.
Test [7] deals with Cyclin-dependent kinase 2 (Homo sapiens, UniProt P24941). The test can be described thus: Inhibition of CDK2 (unknown origin).
Test [8] relates to HCT-116. Kind of test: Anti-proliferative against human HCT-116 cells by SRB colorimetric assay. It is filed as functional, cell-based.
Test [9] concerns A549. The test can be described thus: Anti-proliferative against human A549 cells by SRB colorimetric assay. Type of test: functional, cell-based.
The target in test [10] is Apoptosis regulator Bcl-2 (Homo sapiens, UniProt P10415). Kind of test: Inhibition of BCL2 (unknown origin).
Apoptosis regulator Bcl-2, sequence (P10415 whole entry): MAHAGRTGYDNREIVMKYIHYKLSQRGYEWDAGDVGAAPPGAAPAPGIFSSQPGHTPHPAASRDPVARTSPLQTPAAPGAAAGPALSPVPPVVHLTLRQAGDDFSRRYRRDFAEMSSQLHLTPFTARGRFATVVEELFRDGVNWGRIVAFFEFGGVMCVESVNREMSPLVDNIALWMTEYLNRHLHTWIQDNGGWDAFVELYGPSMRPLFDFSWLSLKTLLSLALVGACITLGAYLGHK
Test [11] relates to MCF7. The test can be described thus: Anti-proliferative against human MCF-7 cells by MTT assay. Type of test: functional, cell-based.
The test system of another test is T47D. Kind of test: Anti-proliferative against human T-47D cells by MTT assay. Type of test: functional, cell-based.
Test [12] addresses Platelet-derived growth factor receptor beta (Homo sapiens, UniProt P09619). The test can be described thus: Inhibition of PDGFR beta (unknown origin).
The nature of test [13]: Inhibition of tyrosine kinase receptor (unknown origin) by ELISA. Also noted: species or system Homo sapiens. A general note: In an ELISA, binding on a coated surface is turned into a signal by an enzyme label.
Test [14] deals with HeLa. The test can be described thus: Cytotoxicity against human HeLa cells measured after 48 hrs by MTS assay. It is filed as functional, cell-based.
For test [15], the system named is MCF7. The test can be described thus: Anti-proliferative against human MCF-7 cells by SRB colorimetric assay. Type of test: functional, cell-based.

Serine/threonine-protein kinase pim-1, sequence (P11309 whole entry): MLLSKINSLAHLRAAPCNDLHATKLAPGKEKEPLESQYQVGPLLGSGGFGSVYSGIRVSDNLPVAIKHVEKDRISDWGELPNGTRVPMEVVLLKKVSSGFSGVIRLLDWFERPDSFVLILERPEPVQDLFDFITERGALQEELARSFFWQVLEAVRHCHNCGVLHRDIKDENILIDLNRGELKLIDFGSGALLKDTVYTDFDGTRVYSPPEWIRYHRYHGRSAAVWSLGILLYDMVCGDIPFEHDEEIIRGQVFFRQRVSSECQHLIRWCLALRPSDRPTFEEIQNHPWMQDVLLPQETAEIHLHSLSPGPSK
Platelet-derived growth factor receptor beta, sequence (P09619 whole entry): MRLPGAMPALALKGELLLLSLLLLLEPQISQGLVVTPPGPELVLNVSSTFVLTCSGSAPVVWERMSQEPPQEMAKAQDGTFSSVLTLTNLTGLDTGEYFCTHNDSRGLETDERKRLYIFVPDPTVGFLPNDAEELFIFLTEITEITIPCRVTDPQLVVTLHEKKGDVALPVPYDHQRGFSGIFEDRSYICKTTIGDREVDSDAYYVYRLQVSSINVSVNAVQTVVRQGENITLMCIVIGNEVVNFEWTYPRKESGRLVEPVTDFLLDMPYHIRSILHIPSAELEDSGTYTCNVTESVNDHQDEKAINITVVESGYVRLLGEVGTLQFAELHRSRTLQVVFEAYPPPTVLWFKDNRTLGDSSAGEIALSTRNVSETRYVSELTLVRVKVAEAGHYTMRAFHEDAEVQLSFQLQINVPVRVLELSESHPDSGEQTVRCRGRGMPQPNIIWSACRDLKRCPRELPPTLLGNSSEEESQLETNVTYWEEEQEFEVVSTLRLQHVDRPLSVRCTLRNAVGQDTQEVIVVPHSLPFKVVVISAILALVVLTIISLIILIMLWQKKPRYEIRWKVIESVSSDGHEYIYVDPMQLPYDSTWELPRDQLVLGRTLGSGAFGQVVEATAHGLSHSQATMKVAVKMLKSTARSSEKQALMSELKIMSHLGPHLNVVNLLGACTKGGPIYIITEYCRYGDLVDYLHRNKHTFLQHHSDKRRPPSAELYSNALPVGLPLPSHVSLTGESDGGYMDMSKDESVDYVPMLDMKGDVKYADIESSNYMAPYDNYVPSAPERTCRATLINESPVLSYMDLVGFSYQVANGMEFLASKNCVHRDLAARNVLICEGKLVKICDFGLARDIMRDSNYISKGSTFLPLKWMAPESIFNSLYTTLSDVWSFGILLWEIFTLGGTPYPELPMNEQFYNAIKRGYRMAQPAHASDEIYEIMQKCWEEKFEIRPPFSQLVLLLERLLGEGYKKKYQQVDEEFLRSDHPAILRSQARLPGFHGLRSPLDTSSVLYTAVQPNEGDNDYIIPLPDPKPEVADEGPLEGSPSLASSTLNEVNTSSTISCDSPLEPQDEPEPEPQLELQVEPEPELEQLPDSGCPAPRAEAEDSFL

In the case of `CCN(CC)CCN1Cc2[nH]c(/C=C3\C(=O)Nc4ccc(I)cc43)c(C)c2C1=O`, the half-maximal inhibitory concentration (IC50) with HCT-116 [1] amounted to 0.42 µM.
`O=C(/C=C1\C(=O)Nc2ccccc21)/C=C/c1ccc(F)cc1`: the IC50 came to 5 µM in [2], 1.53 µM in the test with HeLa [3], 2.02 µM with A549 [4] and 0.13 µM in the test on SW-620.
For `N#CC1=C(c2ccccc2)Nc2c(c(-c3cccs3)nn2-c2ccccc2)C12C(=O)Nc1ccc(Br)cc12` (stereo unspecified), the IC50 with MDA-MB-231 [5] was 6.7 µM.
Turning to `O=C(N/N=C1\C(=O)N(Cc2ccc(F)cc2)c2ccccc21)c1cc2ccccc2[nH]1`, the IC50 in the test with MDA-MB-231 [6] was 1.03 µM.
For the compound `CCCn1cc(/C=N/N=C2\C(=O)Nc3ccc(C)cc32)c2ccccc21`, the IC50 with MDA-MB-231 [6] was found to be 4.7 µM; in test [7], 0.85 µM; in the test with HCT-116 [8], 2.6 µM; with A549 [9], 7.3 µM; in test [10] it was 0.46 µM.
In the case of `COc1ccc2c(c1)/C(=N/NC(=O)c1cc3cc(Br)ccc3o1)C(=O)N2`, the half-inhibitory concentration (IC50) with MCF7 [11] was 2.27 µM; in the test on T47D it was 7.8 µM.
Regarding `COc1ccc2c(c1)/C(=N\Nc1nnc3n1N=C(c1ccccc1)CS3)C(=O)N2`, the IC50 in [12] worked out at 0.371 µM.
The compound `N#CC1=C(c2ccccc2)Nc2c(c(-c3cccs3)nn2-c2ccccc2)C12C(=O)Nc1ccc(Cl)cc12` (stereo unspecified) returned an IC50 in the test with MDA-MB-231 [5] of 6.4 µM.
For the compound `COc1cccc(C[S+]([O-])/C=C2\C(=O)Nc3ccccc32)c1` (stereo unspecified), the IC50 is 2.23 µM in test [13] and 22.7 µM with HeLa [14].
On to `O=C1Nc2ccc(Br)cc2/C1=N/NC(=O)c1cc2cc(Br)ccc2o1`, for which the IC50 was found to be 3.41 µM in the test with MCF7 [11] and 3.82 µM in the test on T47D.
With `Cc1ccc2c(c1)/C(=N/NC(=O)c1cc3cc(Br)ccc3o1)C(=O)N2`, the IC50 was determined as 3.45 µM in the test with MCF7 [11] and 4.53 µM with T47D.
Turning to `CCN(CC)CCN1Cc2[nH]c(/C=C3\C(=O)Nc4ccc(Br)cc43)c(C)c2C1=O`, the IC50 with HCT-116 [1] came out at 1.05 µM.
`Cc1ccc2c(c1)/C(=N/NC(=O)c1cc3ccccc3[nH]1)C(=O)N2`: half-maximal inhibition in the test with MCF7 [15] (IC50) was put at 0.39 µM.
Regarding `O=C1Nc2ccccc2/C1=C/[S+]([O-])Cc1ccc(Br)cc1` (stereo unspecified), the IC50 amounted to 1.34 µM in test [13] and 24.1 µM in the test with HeLa [14].

One may read the IC50 as the point on the concentration scale where inhibition reaches its midpoint.
